Measured values taken from patent US11465972B2, “Inhibitors of oxidized low-density lipoprotein receptor 1 and methods of use thereof” (United States Government as represented by the Department …, priority 2015, dated 2022).
“Also recorded” adds a separate entry of the source.

Assays:
Type in all cases: cell-based, human
HUVECs = test: Dil-ox-LDL uptake by HUVECs (flow cytometry); conditions: for effect on ox-LDL uptake by HUVECs (in words): 200 nM compound; for reduction of the uptake of ox-LDL by HUVECs: 200 nM concentration
Experimental: (§1) FIG. 3A, FIG. 3B, FIG. 3C and FIG. 3D depict the inhibitory effect of the lead compounds on Dil-ox-LDL uptake by HUVECs and CHO cells (measured by flow cytometry) and the effect of the lead compounds on ox-LDL-induced LOX-1 mRNA and protein expression. (FIG. 3A) (Upper Panel) Flow cytometry measurements using HUVECs in the presence of the five lead compounds (Mol-1-Mol-5), each a at 200 nM concentration. (Lower Panel) The percentage of internalized ox-LDL. Graphs show data as mean (±SD); n=4. *P<0.01 or <0.05 vs. control. (FIG. 3B) IC50 value for Mol-5. IC50 value (in nM) is based on inhibition of Dil-ox-LDL uptake in CHO cells overexpressing human LOX-1. Graphs show data as mean (±SD); n=5. *P<0.01 or <0.05 vs. control. (FIG. 3C) Western blotting assay showing LOX-1 protein expression in HUVECs following incubation with 200 nM Mol-1 to Mol-5 for 30 min, and subsequently exposure to 5 μg/mL ox-LDL for 6 hours. (FIG. 3D) The variation of LOX-1 mRNA expression levels at different concentrations of the compounds following exposure of HUVECs to 5 μg/mL ox-LDL. The concentrations are indicated on the X-axis and the LOX-1 mRNA levels are shown on the Y-axis. The plots for all the five molecules are shown in separate colors. Graphs show data as mean (±SD); n=3. *P<0.01 vs. control; #P<0.01 vs. ox-LDL group.
For further characterization, human endothelial cells and fluorescently-labeled Dil-ox-LDL were used for measuring initiation of atherogenic process based on interaction of vascular wall with ox-LDL. Ox-LDL uptake by human umbilical vein endothelial cells (HUVECs) was measured after exposure to 200 nM of each compound using flow cytometry. […] The dose response to modulation of ox-LDL uptake by Mol-5 (0, 20, 200 and 2000 nM) was also measured in CHO cells overexpressing human LOX-1. […] A second dose response curve was conducted to narrow in on the effect of lower concentrations of Mol-5 on ox-LDL uptake (FIG. 6A). Using this information the EC50 was estimated to be […] (FIG. 6B).
The primary HUVECs were purchased from ATCC (Manassas, Va.) and cultured in vascular cell basal medium with supplements (including 10 mL fetal bovine serum, 10 mM L-glutamine, 0.5 tg hydrocortisone hem isuccinate, 25 tg ascorbic acid, 2.5 ng rhVEGF, 2.5 ng rhEGF, 2.5 ng rh FGF, 7.5 ng rhIGF-1 and 0.375 units heparin sulfate). Cells from passages 3 and 4 were used in this study.
HUVECs were plated into 6-well plates and cultured until the cells reached 70% confluence. The cells were exposed to […] Dil-ox-LDL for 30 min after treatment with 200 nM of each of 5 molecules for 30 min, and then washed with PBS for 3 times. After washing, the cells were digested with trypsin and washed with PBS, and suspended in 400 tL PBS, and analyzed with a flow-cytometer (Becton Dickinson, Mountain View, Calif.). For further confirm the inhibitory effects of Mol-5 on Dil-ox-LDL uptake, we also measured Dil-ox-LDL uptake by CHO cells after exposure to […] Mol-5 for 30 min. The CHO cells were stably transfected with human LOX-1 cDNA.

[1] = system: adhesion of monocytes to HUVECs; test: Monocyte adhesion assay on HUVECs; conditions: 200 nM; for effect on monocyte adhesion to HUVECs (in words): ox-LDL treated
Experimental: FIG. 4A, FIG. 4B, FIG. 4C, FIG. 4D and FIG. 4E depict the effect of lead molecules on ox-LDL-induced the activation of MAPKs in HUVECs, VCAM-1 expression and monocyte adhesion onto HUVECs. […] (FIG. 4B) Western blot analyses showing phospho-p38MAPK expression in HUVECs following exposure to 200 nM of each compound for 30 min, and subsequently exposed to 5 μg/mL ox-LDL for 6 hours. […] (FIG. 4D) The variation of VCAM-1 mRNA expression levels with different concentrations of the led compounds. The concentrations are indicated on the X-axis and the VCAM-1 mRNA levels are shown on the Y-axis. The plots for all five molecules are shown in separate colors. […] Graphs show data as mean (±SD); n=3 (for Western blot and PCR assays) or n=20 (for monocyte adhesion assay). *P<0.01 vs. control; #P<0.01 or <0.05 vs. ox-LDL group.
The ox-LDL-induced expression of adhesion molecules, such as VCAM-1, facilitates the adhesion of inflammatory cells, such as monocytes.
Human monocytes were isolated from blood from the healthy donors and cultured in DMEM supplemented with 10% FBS. HUVECs were plated into 6-well plates. When the cells reached 70-80% confluence, they were treated with 200 nM of each of 5 molecules for 30 min, and subsequently exposed to […] ox-LDL for 6 h. After washing with PBS, the medium was replaced, and then monocytes ([…]) were added to each well (4 wells/group) onto HUVECs. Thirty minutes later, the medium containing monocytes were aspired and the unattached monocytes were carefully washed out with PBS. Five fields of each well were randomly captured under a microscope. The number of adherent monocyte was counted and averaged.

LOX-1 mRNA = test: ox-LDL-induced LOX-1 mRNA expression in HUVECs (q-PCR); conditions: for effect on ox-LDL-induced LOX-1 mRNA upregulation / LOX-1 transcription (in words): 5 μg/ml ox-LDL 6 h, 20, 200, 2000 nM; for reduction of LOX-1 transcription: 200 nM concentration
Experimental: as §1
LOX-1 mRNA levels in HUVECs treated with ox-LDL in the absence or presence of the lead molecules at varying concentrations was also measured.
HUVECs were plated into 12-well plates, and treated with 0, 20, 200 and 2000 nM of each of 5 molecules […] for 30 min, and subsequently exposed to […] ox-LDL for 6 h at 37° C. Total RNA was isolated from the treated HUVECs by using a RNeasy Mini-Kit […] according to the manufacturer's instructions. Prior to using, RNA was treated with DNase I and diluted to 100 ng/tL. 100 ng RNA was applied to synthesize cDNA with SuperScript III 1st Strand DNA Synthesis Kit. qPCR was performed using the Applied Biosystems Fast 7500HT real-time PCR system with a 20 tL reaction volume including 10 tL GoTaq qPCR Master Mix (Promega, Madison, Wis.), 100 ng of cDNA and 0.3 tM primers. Data was analyzed by using MX3000P software. Relative mRNA expression was quantified using the comparative threshold cycle (Ct) method. The sequences of primers used for PCR reaction have been described previously^30.

Row | SMILES | effect on ox-LDL uptake by HUVECs (in words) (HUVECs) | reduction of the uptake of ox-LDL by HUVECs (HUVECs) | reduction of monocyte adhesion [1] | effect on monocyte adhesion to HUVECs (in words) [1] | effect on ox-LDL-induced LOX-1 mRNA upregulation / LOX-1 transcription (in words) (LOX-1 mRNA) | reduction of LOX-1 transcription (LOX-1 mRNA)
1 | CCOCCCNC(=O)CCN1C(=O)COc2ccccc21 [Mol-1] | moderate inhibitory effect | about 35% | 25% | decreased the number of monocytes adherent to HUVECs; also recorded: markedly inhibited |  | 
2 | CC(C)(C)C(=O)NCCc1nc2ccccc2n1Cc1ccccc1F [Mol-2] | no significant effect |  |  |  | no significant effect | 
3 | CCCn1c(CCNC(=O)CCCO)nc2ccccc21 [Mol-4] | significantly and potently inhibited | 65% | 30% | decreased the number of monocytes adherent to HUVECs; also recorded: markedly inhibited | significantly reduced | 47%
4 | Cc1cc(C)n(CC(O)COc2ccccc2)n1 (stereo not drawn) [Mol-5, 1-(3,5-dimethyl-1H-pyrazol-1-yl)-3-phenoxypropan-2-ol] | significantly and potently inhibited; also recorded: maximum inhibitory effect | 80% | 35% | decreased the number of monocytes adherent to HUVECs; also recorded: markedly inhibited | significantly reduced | 70%
